From patent US4487763A, “Peptide, process for preparation thereof and use thereof” (Fujisawa Pharmaceutical Co., Ltd., priority 1979, dated 1984)

Experiments:
Mice (DDY male 5-6 W) = test: Blood stream clearance of carbon; format: in vivo; conditions: carbon clearance measured 24 hours later
Protocol: 1. Carbon suspension. Rotoring drawing ink (170 mg carbon/ml.) was diluted to 1/5 of the original concentration in saline containing 1% gelatin. 2. 0.1% aqueous sodium carbonate solution. Mice (DDY male 5-6 W) were injected via the tail vein with a dose of 0.01 ml/g body weight of carbon. Blood samples were taken by means of a pointed capillary […] calibrated to hold a 50 μl and previously washed in heparin. This was plunged into the retroorbital venous sinus at the nasal angle of the eye. The samples were removed at 3 and 6 min. The blood was immediately discharged into 3.0 ml. of the sodium carbonate solution. This hemolyzed the blood and allowed the quantitation of carbon. The samples were then read in a spectrophotometer at 660 nm, the log concentration being obtained from a previously determined standard curve. The clearance value K may be determined by plotting log carbon concentration against time according to the following relationship; [formula] in which T1 and T2 represent the time in min when the sample were withdrawn and C1 and C2 represent the concentrations of carbon in the blood at the time T1 and T2, respectively. The aqueous solution of the drug as given was administered subcutaneously to mice. Twenty four hours later, blood stream clearance of carbon was measured. K value obtained with treated mice was compared with that of control mice.

E. coli 22 = test: Protective efficacy in experimental infection in mice; format: in vivo; conditions: male ICR mice, survival after four days
Protocol: In determining the protective efficacy against experimental infections in mice, the test compound was dissolved in and diluted with sterile saline to provide prescribed concentrations of drug.
Male ICR-strain mice, aged 4 weeks were used in groups of ten mice. E. coli 22 was cultivated overnight at 37° C. on trypticase soy agar and then were suspended in a sterile saline to obtain microbial cell concentration of 9.0×10^7 CFU/ml. Mice were inoculated intraperitoneally with 0.2 ml of the suspension. Each of the test drugs was given intraperitoneally in various doses to a group of ten mice 24 hours before challenge.
Survival percent were found from the number of the surviving animals after four days of injection.

D-Lac-L-Ala-γ-D-Glu(α-OH)-(L)-[D-Lac-L-Ala-γ-D-Glu(α-OH)-(L)-mesoDAP-(D)-Gly]-(D)-mesoDAP-(L)-GlyOH [Example 13 (Step 2)]
K treated/K control (Mice (DDY male 5-6 W); dose 1 mg/mouse subcutaneously): 0.6
K treated/K control (Mice (DDY male 5-6 W); dose 100 mg/mouse subcutaneously): 1.6
Survival (%) (E. coli 22; dose 1 mg/kg intraperitoneally 24 hours before challenge): 100%
Survival (%) (E. coli 22; dose 10 mg/kg intraperitoneally 24 hours before challenge): 100%
